From patent publication US20260193268A1, “TRICYCLIC PI3Ka INHIBITOR, PREPARATION METHOD THEREFOR, AND PHARMACEUTICAL USE THEREOF” (WIGEN BIOMEDICINE TECHNOLOGY (SHANGHAI) CO., LTD., priority 2022, published 2026)

How the values were obtained:
[1] = test system: MCF-7 cells (with PI3Kα E545K mutation); assay: In vitro inhibition of MCF-7 cell proliferation (CellTiter-Lumi); type: cell-based; details: Homo sapiens, MCF7, 144 h, class symbols, read-out: Inhibitory activity against MCF-7 cells (IC50), class symbols
In short: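 MCF-7 (PI3Kα E545K) seeded at 2000 cells/well; serially diluted compounds added next day and exposed for 144 h. Cellular ATP read by CellTiter-Lumi luminescence; IC50 for growth inhibition calculated.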

[2] = test system: HCC1954 cells (with PI3Kα H1047R mutation); assay: In vitro inhibition of HCC1954 cell proliferation (CellTiter-Lumi); type: cell-based; details: Homo sapiens, HCC1954, 144 h, HCC1954 cells, 144 h, CellTiter-Lumi; class symbols; read-out: Inhibitory activity against HCC1954 cells (IC50), class symbols
Method: Assay for In Vitro Inhibition of HCC1954 Cell Proliferation by Compounds of the Present Disclosure
The growth of the cells was evaluated, and the IC50 for the inhibition of cell growth by the compounds was calculated.

| Compound | IC50 [1] | IC50 [2] |
| --- | --- | --- |
| COC(C)(C)C=C(C#N)C(=O)Nc1ccc(N2CC(N3CCN(c4ccc5c(c4)-c4nc(N6C(=O)OC[C@H]6C(F)F)cn4CCO5)CC3)C2)cc1 [Compound 212] | < 50 nM | < 50 nM |
| N#CC(=CC1(N)CC1)C(=O)Nc1ccc(N2CC(N3CCN(c4ccc5c(c4)-c4nc(N6C(=O)OC[C@H]6C(F)F)cn4CCO5)CC3)C2)cc1 [Compound 213] | < 50 nM | < 50 nM |
| N#CC(=CC1CCCN1)C(=O)Nc1ccc(N2CC(N3CCN(c4ccc5c(c4)-c4nc(N6C(=O)OC[C@H]6C(F)F)cn4CCO5)CC3)C2)cc1 (stereo partly shown) [Compound 214] | < 50 nM | < 50 nM |
| CNC(C)(C)C=C(C#N)C(=O)Nc1ccc(N2CCC(N3CCN(c4ccc5c(c4)-c4nc(N6C(=O)OCC6C(F)F)cn4CCO5)CC3)C2)cc1 (stereo not shown) [Compound 215] | < 50 nM | < 50 nM |
| C=CC(=O)Nc1ccc(N2CC(N3CCN(c4ccc5c(c4)-c4nc(N6C(=O)OC[C@H]6C(F)F)cn4CCO5)CC3)C2)nc1C [Compound 216] | < 50 nM | < 50 nM |
| C=CC(=O)Nc1cnc(N2CC(N3CCN(c4ccc5c(c4)-c4nc(N6C(=O)OC[C@H]6C(F)F)cn4CCO5)CC3)C2)cc1C [Compound 217] | < 50 nM | < 50 nM |
| COCCNC(C)(C)C=C(C#N)C(=O)Nc1ccc(N2CC(N3CCN(c4ccc5c(c4)-c4nc(N6C(=O)OC[C@H]6C(F)F)cn4CCO5)CC3)C2)cc1 [Compound 218] | < 50 nM | < 50 nM |
| CNC(C)(C)C=C(C#N)C(=O)Nc1cc(N2CC(N3CCN(c4ccc5c(c4)-c4nc(N6C(=O)OC[C@H]6C(F)F)cn4CCO5)CC3)C2)n(C)n1 [Compound 219] | < 50 nM | < 50 nM |
| CN(C1COC1)C(C)(C)C=C(C#N)C(=O)Nc1ccc(N2CC(N3CCN(c4ccc5c(c4)-c4nc(N6C(=O)OC[C@H]6C(F)F)cn4CCO5)CC3)C2)c(F)c1 [Compound 220] | < 50 nM | < 50 nM |
| CC(C)(C=C(C#N)C(=O)Nc1ccc(N2CC(N3CCN(c4ccc5c(c4)-c4nc(N6C(=O)OC[C@H]6C(F)F)cn4CCO5)CC3)C2)c(F)c1)NC1COC1 [Compound 221] | < 50 nM | < 50 nM |
| CC(C)(C=C(C#N)C(=O)Nc1ccc(N2CC(N3CCN(c4ccc5c(c4)-c4nc(N6C(=O)OC[C@H]6C(F)F)cn4CCO5)CC3)C2)c(F)c1)N1CCOCC1 [Compound 222] | < 50 nM | < 50 nM |
| CC(C)(C)C=C(C#N)C(=O)Nc1ccc(N2CC(N3CCN(c4ccc5c(c4)-c4nc(N6C(=O)OC[C@H]6C(F)F)cn4CCO5)CC3)C2)c(F)c1 [Compound 223] | < 50 nM | < 50 nM |
| CC(C)(N)C=C(C#N)C(=O)Nc1ccc(N2CC(N3CCN(c4ccc5c(c4)-c4nc(N6C(=O)OC[C@H]6C(F)F)cn4CCO5)CC3)C2)c(F)c1 [Compound 224] | < 50 nM | < 50 nM |
| CNC(C)(C)C=C(C#N)C(=O)Nc1ccc(N2CC(N3CCN(c4ccc5c(c4)-c4nc(N6C(=O)OC[C@H]6C(F)F)cn4CCO5)CC3)C2)c(F)c1 [Compound 225] | < 50 nM | < 50 nM |
| CC(C)C=C(C#N)C(=O)Nc1ccc(N2CC(N3CCN(c4ccc5c(c4)-c4nc(N6C(=O)OC[C@H]6C(F)F)cn4CCO5)CC3)C2)c(F)c1 [Compound 226] | < 50 nM | < 50 nM |
| N#CC(=CC1CC1)C(=O)Nc1ccc(N2CC(N3CCN(c4ccc5c(c4)-c4nc(N6C(=O)OC[C@H]6C(F)F)cn4CCO5)CC3)C2)c(F)c1 [Compound 227] | < 50 nM | < 50 nM |
| CC(C)(C=C(C#N)C(=O)Nc1ccc(N2CC(N3CCN(c4ccc5c(c4)-c4nc(N6C(=O)OC[C@H]6C(F)F)cn4CCO5)CC3)C2)c(F)c1)N1CC2(COC2)C1 [Compound 228] | < 50 nM | < 50 nM |
| CC(C)(C=C(C#N)C(=O)Nc1ccc(N2CC(N3CCN(c4ccc5c(c4)-c4nc(N6C(=O)OC[C@H]6C(F)F)cn4CCO5)CC3)C2)c(F)c1)N1CCC1 [Compound 229] | < 50 nM | < 50 nM |
| CC(C)(O)C=C(C#N)C(=O)Nc1ccc(N2CC(N3CCN(c4ccc5c(c4)-c4nc(N6C(=O)OC[C@H]6C(F)F)cn4CCO5)CC3)C2)c(F)c1 [Compound 230] | < 50 nM | < 50 nM |
| COC(C)(C)C=C(C#N)C(=O)Nc1ccc(N2CC(N3CCN(c4ccc5c(c4)-c4nc(N6C(=O)OC[C@H]6C(F)F)cn4CCO5)CC3)C2)c(F)c1 [Compound 231] | < 50 nM | < 50 nM |
| COCCNC(C)(C)C=C(C#N)C(=O)Nc1ccc(N2CC(N3CCN(c4ccc5c(c4)-c4nc(N6C(=O)OC[C@H]6C(F)F)cn4CCO5)CC3)C2)c(F)c1 [Compound 232] | < 50 nM | < 50 nM |
| CC1(C=C(C#N)C(=O)Nc2ccc(N3CC(N4CCN(c5ccc6c(c5)-c5nc(N7C(=O)OC[C@H]7C(F)F)cn5CCO6)CC4)C3)c(F)c2)COC1 [Compound 233] | < 50 nM | < 50 nM |

| Compound | IC50 [1] | IC50 [2] |
| --- | --- | --- |
| N#CC(=CC1CCCN1)C(=O)Nc1ccc(N2CC(N3CCN(c4ccc5c(c4)-c4nc(N6C(=O)OC[C@H]6C(F)F)cn4CCO5)CC3)C2)c(F)c1 (stereo partly shown) [Compound 234] | < 50 nM | < 50 nM |
| N#CC(=CC1(N)CC1)C(=O)Nc1ccc(N2CC(N3CCN(c4ccc5c(c4)-c4nc(N6C(=O)OC[C@H]6C(F)F)cn4CCO5)CC3)C2)c(F)c1 [Compound 235] | < 50 nM | < 50 nM |
| CC=C(C#N)C(=O)Nc1ccc(N2CC(N3CCN(c4ccc5c(c4)-c4nc(N6C(=O)OC[C@H]6C(F)F)cn4CCO5)CC3)C2)c(F)c1 [Compound 236] | < 50 nM | < 50 nM |
| CNC1(C=C(C#N)C(=O)Nc2ccc(N3CC(N4CCN(c5ccc6c(c5)-c5nc(N7C(=O)OC[C@H]7C(F)F)cn5CCO6)CC4)C3)c(F)c2)CC1 [Compound 237] | < 50 nM | < 50 nM |
| CN(C1COC1)C(C)(C)C=C(C#N)C(=O)Nc1ccc(N2CC(N3CCN(c4ccc5c(c4)-c4nc(N6C(=O)OC[C@H]6C(F)F)cn4CCO5)CC3)C2)nc1 [Compound 238] | < 50 nM | < 50 nM |
| CC(C)(C=C(C#N)C(=O)Nc1ccc(N2CC(N3CCN(c4ccc5c(c4)-c4nc(N6C(=O)OC[C@H]6C(F)F)cn4CCO5)CC3)C2)nc1)NC1COC1 [Compound 239] | < 50 nM | < 50 nM |
| CC(C)(C=C(C#N)C(=O)Nc1ccc(N2CC(N3CCN(c4ccc5c(c4)-c4nc(N6C(=O)OC[C@H]6C(F)F)cn4CCO5)CC3)C2)nc1)N1CCOCC1 [Compound 240] | < 50 nM | < 50 nM |
| CC(C)(C)C=C(C#N)C(=O)Nc1ccc(N2CC(N3CCN(c4ccc5c(c4)-c4nc(N6C(=O)OC[C@H]6C(F)F)cn4CCO5)CC3)C2)nc1 [Compound 241] | < 50 nM | < 50 nM |
| CC(C)(N)C=C(C#N)C(=O)Nc1ccc(N2CC(N3CCN(c4ccc5c(c4)-c4nc(N6C(=O)OC[C@H]6C(F)F)cn4CCO5)CC3)C2)nc1 [Compound 242] | < 50 nM | < 50 nM |
| CNC(C)(C)C=C(C#N)C(=O)Nc1ccc(N2CC(N3CCN(c4ccc5c(c4)-c4nc(N6C(=O)OC[C@H]6C(F)F)cn4CCO5)CC3)C2)nc1 [Compound 243] | < 50 nM | < 50 nM |
| CC(C)C=C(C#N)C(=O)Nc1ccc(N2CC(N3CCN(c4ccc5c(c4)-c4nc(N6C(=O)OC[C@H]6C(F)F)cn4CCO5)CC3)C2)nc1 [Compound 244] | < 50 nM | < 50 nM |
| N#CC(=CC1CC1)C(=O)Nc1ccc(N2CC(N3CCN(c4ccc5c(c4)-c4nc(N6C(=O)OC[C@H]6C(F)F)cn4CCO5)CC3)C2)nc1 [Compound 245] | < 50 nM | < 50 nM |
| CC(C)(C=C(C#N)C(=O)Nc1ccc(N2CC(N3CCN(c4ccc5c(c4)-c4nc(N6C(=O)OC[C@H]6C(F)F)cn4CCO5)CC3)C2)nc1)N1CC2(COC2)C1 [Compound 246] | < 50 nM | < 50 nM |
| CC(C)(C=C(C#N)C(=O)Nc1ccc(N2CC(N3CCN(c4ccc5c(c4)-c4nc(N6C(=O)OC[C@H]6C(F)F)cn4CCO5)CC3)C2)nc1)N1CCC1 [Compound 247] | < 50 nM | < 50 nM |
| CC(C)(O)C=C(C#N)C(=O)Nc1ccc(N2CC(N3CCN(c4ccc5c(c4)-c4nc(N6C(=O)OC[C@H]6C(F)F)cn4CCO5)CC3)C2)nc1 [Compound 248] | < 50 nM | < 50 nM |
| COC(C)(C)C=C(C#N)C(=O)Nc1ccc(N2CC(N3CCN(c4ccc5c(c4)-c4nc(N6C(=O)OC[C@H]6C(F)F)cn4CCO5)CC3)C2)nc1 [Compound 249] | < 50 nM | < 50 nM |
| COCCNC(C)(C)C=C(C#N)C(=O)Nc1ccc(N2CC(N3CCN(c4ccc5c(c4)-c4nc(N6C(=O)OC[C@H]6C(F)F)cn4CCO5)CC3)C2)nc1 [Compound 250] | < 50 nM | < 50 nM |
| CC1(C=C(C#N)C(=O)Nc2ccc(N3CC(N4CCN(c5ccc6c(c5)-c5nc(N7C(=O)OC[C@H]7C(F)F)cn5CCO6)CC4)C3)nc2)COC1 [Compound 251] | < 50 nM | < 50 nM |
| N#CC(=CC1CCCN1)C(=O)Nc1ccc(N2CC(N3CCN(c4ccc5c(c4)-c4nc(N6C(=O)OC[C@H]6C(F)F)cn4CCO5)CC3)C2)nc1 (stereo partly shown) [Compound 252] | < 50 nM | < 50 nM |
| N#CC(=CC1(N)CC1)C(=O)Nc1ccc(N2CC(N3CCN(c4ccc5c(c4)-c4nc(N6C(=O)OC[C@H]6C(F)F)cn4CCO5)CC3)C2)nc1 [Compound 253] | < 50 nM | < 50 nM |
| CC=C(C#N)C(=O)Nc1ccc(N2CC(N3CCN(c4ccc5c(c4)-c4nc(N6C(=O)OC[C@H]6C(F)F)cn4CCO5)CC3)C2)nc1 [Compound 254] | < 50 nM | < 50 nM |
| CNC1(C=C(C#N)C(=O)Nc2ccc(N3CC(N4CCN(c5ccc6c(c5)-c5nc(N7C(=O)OC[C@H]7C(F)F)cn5CCO6)CC4)C3)nc2)CC1 [Compound 255] | < 50 nM | < 50 nM |
